Measured values published in ChEMBL document CHEMBL2021761, “Imidazonaphthyridine systems (part 2): Functionalization of the phenyl ring linked to the pyridine pharmacophore and its replacement by a pyridinone ring produces intriguing differences in cytocidal activity” (Eur J Med Chem, 2012).
The source made the active and inactive calls. No cut-off for these calls is given here.

How the values were obtained:
[1] = tested on: MCF7; assay: Cytocidal activity against human MCF7 cells assessed as growth inhibition after 48 hrs by SRB assay; format: functional; conditions: MCF7, 48 h
[2] = tested on: M21; assay: Cytocidal activity against human M21 cells assessed as growth inhibition after 48 hrs by SRB assay; format: functional; conditions: M21, 48 h
[3] = tested on: HT-29; assay: Cytocidal activity against human HT-29 cells assessed as growth inhibition after 48 hrs by SRB assay; format: functional; conditions: HT-29, 48 h
[4] = tested on: HT-1080; assay: Cytocidal activity against human HT1080 cells assessed as growth inhibition after 48 hrs by SRB assay; format: functional; conditions: HT-1080, 48 h
[5] = Dissociation constant, pKa of the compound; format: physicochemical
[6] = target: T1, DNA topoisomerase 1 (Homo sapiens) (UniProt P11387); assay: Inhibition of recombinant human topoisomerase 1-mediated unwinding of supercoiled plasmid DNA assessed as DNA intercalation at 50 uM after 2 hrs by gel electrophoresis
T1 sequence (whole entry): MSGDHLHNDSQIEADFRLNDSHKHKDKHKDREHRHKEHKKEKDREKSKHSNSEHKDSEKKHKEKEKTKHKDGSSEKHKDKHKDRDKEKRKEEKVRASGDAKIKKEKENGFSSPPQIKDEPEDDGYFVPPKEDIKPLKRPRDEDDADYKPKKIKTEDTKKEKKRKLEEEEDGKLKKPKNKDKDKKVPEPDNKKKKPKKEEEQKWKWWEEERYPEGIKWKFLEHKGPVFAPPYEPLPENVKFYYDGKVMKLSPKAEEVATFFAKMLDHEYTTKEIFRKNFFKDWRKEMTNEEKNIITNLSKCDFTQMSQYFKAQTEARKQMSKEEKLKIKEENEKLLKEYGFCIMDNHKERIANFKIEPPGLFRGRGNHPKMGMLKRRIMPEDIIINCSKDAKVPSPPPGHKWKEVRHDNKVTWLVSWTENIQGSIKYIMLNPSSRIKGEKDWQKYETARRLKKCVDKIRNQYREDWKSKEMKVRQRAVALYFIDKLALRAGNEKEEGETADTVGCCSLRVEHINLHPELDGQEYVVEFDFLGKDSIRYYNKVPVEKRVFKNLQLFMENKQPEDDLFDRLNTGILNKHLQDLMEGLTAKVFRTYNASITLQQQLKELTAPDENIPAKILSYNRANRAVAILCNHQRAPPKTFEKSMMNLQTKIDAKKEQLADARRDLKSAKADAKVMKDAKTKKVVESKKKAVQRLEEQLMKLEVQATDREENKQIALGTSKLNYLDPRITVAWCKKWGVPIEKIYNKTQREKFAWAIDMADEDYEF

[7] = target: T1, DNA topoisomerase 1 (Homo sapiens); assay: Inhibition of recombinant human topoisomerase 1-mediated unwinding of supercoiled plasmid DNA assessed as DNA intercalation at 100 to 200 uM after 2 hrs by gel electrophoresis
[8] = target: T1, DNA topoisomerase 1 (Homo sapiens); assay: Inhibition of recombinant human topoisomerase 1-mediated unwinding of supercoiled plasmid DNA assessed as DNA intercalation at 25 uM after 2 hrs by gel electrophoresis
[9] = target: T1, DNA topoisomerase 1 (Homo sapiens); assay: Inhibition of recombinant human topoisomerase 1-mediated unwinding of supercoiled plasmid DNA assessed as formation of nicked open circular DNA at 12.5 to 100 uM after 2 hrs by gel electrophoresis
[10] = target: T1, DNA topoisomerase 1 (Homo sapiens); assay: Inhibition of recombinant human topoisomerase 1-mediated unwinding of supercoiled plasmid DNA assessed as DNA intercalation at 12.5 to 100 uM by gel electrophoresis; conditions: TDE = time-dependent effect
[11] = target: T1, DNA topoisomerase 1 (Homo sapiens); assay: Inhibition of recombinant human topoisomerase 1-mediated unwinding of supercoiled plasmid DNA assessed as DNA intercalation after 2 hrs by gel electrophoresis

CCOC(=O)c1c[nH]c2c(ccn3cc(-c4ccccc4)nc23)c1=O
GI50 [1]: > 100 µM | GI50 [2]: > 100 µM | GI50 [3]: > 100 µM | GI50 [4]: > 100 µM

c1ccc2cc3nc4c(ccn5ccnc45)cc3cc2c1
pKa [5]: 2.43

O=c1c(-c2ccccc2)c[nH]c2ccn3ccnc3c12
GI50 [1]: 20 µM | GI50 [2]: 40.7 µM | GI50 [3]: 34.2 µM | GI50 [4]: 19.7 µM

Cc1ccc2ccn3ccnc3c2n1
pKa [5]: 4.23

CCOC(=O)c1c[nH]c2c(ccn3cc(C)nc23)c1=O
GI50 [1]: > 100 µM | GI50 [2]: > 100 µM | GI50 [3]: > 100 µM | GI50 [4]: > 100 µM

COc1ccc(-c2c[nH]c3ccn4ccnc4c3c2=O)cc1
GI50 [1]: 1.1 µM | GI50 [2]: 1.3 µM | inhibition [6]: inactive | inhibition [7]: inactive | GI50 [3]: 8.6 µM | inhibition [8]: inactive | GI50 [4]: 1.2 µM

CCOC(=O)c1c[nH]c2ccn3cc(-c4ccccc4)nc3c2c1=O
GI50 [1]: 20.5 µM | GI50 [2]: 13.4 µM | GI50 [3]: 21.6 µM | GI50 [4]: 10.4 µM

CCOC(=O)c1c[nH]c2c(ccn3cc(C(C)C)nc23)c1=O
GI50 [1]: > 100 µM | GI50 [2]: > 100 µM | GI50 [3]: > 100 µM | GI50 [4]: > 100 µM

COc1cc(-c2ccc3ccn4ccnc4c3n2)cc(OC)c1OC
GI50 [1]: 30.7 µM | GI50 [2]: 24.5 µM | inhibition [6]: Active | inhibition [9]: inactive | GI50 [3]: 27.8 µM | inhibition [8]: Active | inhibition [10]: tde | GI50 [4]: 29.2 µM

O=c1c(-c2ccccc2)c[nH]c2c1ccn1ccnc21
GI50 [1]: > 100 µM | GI50 [2]: > 100 µM | GI50 [3]: > 100 µM | GI50 [4]: > 100 µM

c1ccc(-c2ccc3ccn4ccnc4c3n2)cc1
pKa [5]: 1.96 | inhibition [6]: Active | inhibition [9]: inactive | inhibition [8]: Active | inhibition [10]: tde | GI50 [4]: 54.7 µM

c1cn2ccc3cc4c(nc3c2n1)CCCC4
pKa [5]: 4.59

Cc1ccc(-c2ccc3ccn4ccnc4c3n2)cc1
GI50 [1]: 7.6 µM | GI50 [2]: 6.4 µM | inhibition [6]: inactive | inhibition [7]: inactive | GI50 [3]: 5.1 µM | inhibition [8]: inactive | GI50 [4]: 10.7 µM

CCOC(=O)c1c[nH]c2ccn3cc(C)nc3c2c1=O
GI50 [1]: 98.5 µM | GI50 [2]: 88.5 µM | GI50 [3]: 63.2 µM | GI50 [4]: 72.9 µM

CCBr
inhibition [11]: Active

Cc1cc2ccn3ccnc3c2nc1C
pKa [5]: 4.63

COc1ccc(-c2ccc3ccn4ccnc4c3n2)cc1
GI50 [1]: 6.9 µM | GI50 [2]: 5 µM | inhibition [6]: Active | GI50 [3]: 5.1 µM | inhibition [8]: Active | GI50 [4]: 5.2 µM

CCOC(=O)c1c[nH]c2c(ccn3ccnc23)c1=O
GI50 [1]: > 100 µM | GI50 [2]: > 100 µM | GI50 [3]: > 100 µM | GI50 [4]: > 100 µM

c1ccc2c(c1)CCc1cc3ccn4ccnc4c3nc1-2
pKa [5]: 2.43

COc1cc(NS(C)(=O)=O)ccc1Nc1c2ccccc2nc2ccccc12 [AMSACRINE]
GI50 [1]: 5.6 µM | GI50 [4]: 1.6 µM

COc1cc(-c2c[nH]c3ccn4ccnc4c3c2=O)cc(OC)c1OC
GI50 [1]: 71.9 µM | GI50 [2]: 82.7 µM | GI50 [3]: 62.7 µM | GI50 [4]: 92.5 µM

CCOC(=O)c1c[nH]c2ccn3cc(C(C)C)nc3c2c1=O
GI50 [1]: 37.3 µM | GI50 [2]: 26.9 µM | GI50 [3]: 43.7 µM | GI50 [4]: 22 µM

COc1cc(-c2c[nH]c3c(ccn4ccnc34)c2=O)cc(OC)c1OC
GI50 [1]: > 100 µM | GI50 [2]: > 100 µM | GI50 [3]: > 100 µM | GI50 [4]: > 100 µM

CCOC(=O)C1CCc2nc3c(ccn4ccnc34)cc2C1 (centres undefined)
pKa [5]: 4.08

O=C1CCCc2nc3c(ccn4ccnc34)cc21
pKa [5]: 2

CCOC(=O)c1c[nH]c2c(ccn3cc(-c4cccc(OC)c4)nc23)c1=O
GI50 [1]: > 100 µM | GI50 [2]: > 100 µM | GI50 [3]: > 100 µM | GI50 [4]: > 100 µM

c1ccc2c(c1)CCc1nc3c(ccn4ccnc34)cc1-2
pKa [5]: 3.53

Clc1ccc(-c2ccc3ccn4ccnc4c3n2)cc1
GI50 [1]: 7.1 µM | GI50 [2]: 4.7 µM | inhibition [6]: Active | GI50 [3]: 3.4 µM | inhibition [8]: Active | GI50 [4]: 6.9 µM

CCOC(=O)c1c[nH]c2ccn3ccnc3c2c1=O
GI50 [1]: 0.3 µM | GI50 [2]: 0.8 µM | inhibition [6]: inactive | inhibition [7]: inactive | GI50 [3]: 4.5 µM | inhibition [8]: inactive | GI50 [4]: 0.3 µM

CCOC(=O)c1c[nH]c2ccn3cc(-c4cccc(OC)c4)nc3c2c1=O
GI50 [1]: 98 µM | GI50 [2]: 93.4 µM | GI50 [3]: 71.1 µM | GI50 [4]: > 100 µM

COc1ccc(-c2c[nH]c3c(ccn4ccnc34)c2=O)cc1
GI50 [1]: > 100 µM | GI50 [2]: > 100 µM | GI50 [3]: > 100 µM | GI50 [4]: > 100 µM
